The source of these data is PubChem BioAssay AID179 (DTP/NCI, 2004).

The source made the active and inactive calls.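 Rule for the calls: active = compounds giving half or more protection of infected cells from virus-caused growth loss, again on retest; inactive = the rest.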

In this assay the test system is CEM cells HIV-1 protection, formazan growth assay. The experiment in a line: NCI AIDS Antiviral Assay. The conditions noted are these: for IC50: measured here: growth of uninfected CEM cells. The essentials:
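Five concentrations of each compound were applied to infected and uninfected human CEM cells. Protection from HIV-1 was judged from growth measured with a soluble formazan assay.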

For `O=c1c(SCc2ccc(Cl)c(Cl)c2)c(SCc2ccc(Cl)c(Cl)c2)cnn1-c1ccccc1`, the EC50 is over 6.76 µM and the IC50 was over 6.76 µM.

On to `O=C(NC1C(=O)NNC1c1ccccc1Cl)c1ccccc1` (stereo not given), for which the EC50 was over 158 µM and the IC50 was over 158 µM.

For the compound `CC(C)(C)OC(=O)N/N=C(/N)Cc1ccccc1`, the EC50 is over 200 µM and the IC50 is over 200 µM.

As for `CCC(C)N1CN(c2ccccc2)C2(CCN(CCCC(=O)c3ccc(F)cc3)CC2)C1=O` (stereo not given), the EC50 is over 200 µM and the IC50 was found to be 3.55 µM.

Regarding `COc1cccc2c1C(=O)c1c(O)c3c(c(O)c1C2=O)C[C@@](O)(/C(C)=N\O)C[C@@H]3OC1CC(N)C(O)C(C)O1` (stereo not given in full), the EC50 was over 0.2 µM and the IC50 was 0.0646 µM.

As for `N#CC(c1ccccn1)c1nc2ccccc2[nH]1` (stereo not given), the EC50 is over 8.51 µM and the IC50 was over 8.51 µM.

On to `CC(=O)c1cc(I)c(O)c2ncccc12`, for which the EC50 was over 79.4 µM and the half-maximal inhibitory concentration (IC50) is 1.45 µM.

As to `O=C(Nc1cc2c(=O)oc3ccccc3c2oc1=O)c1cccnc1`, the EC50 is over 100 µM and the IC50 was over 100 µM.

Consider `CC1SC(C)SC(C(C)(C)O)S1` (stereo not given), for which the EC50 is over 32.4 µM and the IC50 was over 32.4 µM.

Take `Nc1ccc2oc3cccnc3c2c1`: the EC50 was over 977 µM and the IC50 amounted to 372 µM.

For the compound `O=C1OC(=O)c2cnccc21`, the outcome was inactive.

As for `N#Cc1nc(CN2C(=O)c3ccccc3C2=O)oc1N`, the EC50 is 5.89 µM and the IC50 is over 200 µM.

Regarding `CNc1ccc2ncccc2c1[N+](=O)[O-]`, the EC50 was over 46.8 µM and the IC50 is over 46.8 µM.

Regarding `O=c1[nH]c2nccn2c2c1SCCN2`, the EC50 was over 200 µM and the IC50 was over 200 µM.

On to `C=CCN(CC=C)C(=O)COc1cc2c(O)c3c(O)c(C)c4c(c13)C(=O)C(C)(O/C=C\C(OC)C(C)C(OC(C)=O)C(C)C(O)C(C)C(O)C(C)/C=C\C=C(\C)C(=O)N2)O4` (stereo not given), for which the EC50 is over 200 µM and the IC50 was determined as 17 µM.

For `O=C(N1CCCC1)C1(c2cccc(Cl)c2)CCNCC1`, the EC50 was over 200 µM and the IC50 stood at 129 µM.

On to `c1cc(CCSSCCc2ccncc2)ccn1`, for which the EC50 was over 200 µM and the IC50 is 3.8 µM.

Turning to `CC(C)(C)C(=O)OCC1OC(N=[N+]=[N-])C(OC(=O)C(C)(C)C)C(OC(=O)C(C)(C)C)C1OC(=O)C(C)(C)C` (stereo not given), the EC50 is over 200 µM and the IC50 is over 200 µM.

Take `O=C(CC(C(=O)c1cccs1)c1cccs1)c1ccsc1` (stereo not given): the EC50 was over 200 µM and the IC50 came to 11.7 µM.

`[N-]=[N+]=CC(=O)C1CCN(c2ccccc2)C1=O` (stereo not given): the EC50 is over 200 µM and the half-inhibitory concentration (IC50) was over 200 µM.

As for `COC1OC2COC(c3ccccc3)OC2C2N=C(N)N([N+](=O)[O-])C12OS(C)(=O)=O` (stereo not given), the outcome was inactive.

With `Cc1ccc(C2=C(c3ccccc3)C(=O)C(c3ccccc3)=C2c2ccc(C)cc2)cc1`, the EC50 is over 87.1 µM and the half-inhibitory concentration (IC50) was over 87.1 µM.

Take `On1ccccc1=S`: the EC50 is over 2 µM and the IC50 was determined as 1.32 µM.

As to `CN(C)CCN(C)P12(Oc3ccccc3O1)Oc1c(Cl)c(Cl)c(Cl)c(Cl)c1O2`, the EC50 was over 43.7 µM and the IC50 turned out to be 24.5 µM.

On to `C#CC(O)/C=C/C(O)CCCC(O)CC#CC(O)C#CCCCCC(O)/C=C/CCCC(=O)CCCCCCCCCCCCCCCC(O)C(O)C#CC(=O)O` (stereo not given), for which the EC50 is over 50.1 µM and the 50% inhibitory concentration (IC50) is 28.2 µM.

Consider `O=C1c2ccccc2C2(c3ccc(F)cc3)NCCN12` (stereo not given), for which the EC50 was over 200 µM and the IC50 was 186 µM.

As for `Clc1ccc(CN2COc3c(cc(Cl)c4cccnc34)C2)cc1`, the EC50 is over 64.6 µM and the IC50 is 1.26 µM.

For `CCc1nc(N)nc(N)c1-c1ccc(Cl)cc1`, the EC50 is over 1 µM and the IC50 was 0.0372 µM.

`CC(C)(C)[Si](C)(C)OCC1OC(n2ccc(=O)[nH]c2=O)C(O[Si](C)(C)C(C)(C)C)/C1=C/CO` (stereo not given): the EC50 was over 200 µM and the IC50 was determined as 8.32 µM.

As to `O=C1NC(O)n2c(=O)[nH]c(=O)n21` (stereo not given), the result was inactive.

Regarding `Cc1nnc2n1-c1ccccc1-c1[nH]c3ccccc3c1C2`, the EC50 was over 200 µM and the IC50 was 22.4 µM.

As for `O=C(CCCc1cccc2[nH]c3c(c12)CN(Cc1ccccc1)CC3)c1ccc(F)cc1`, the EC50 is over 200 µM and the IC50 turned out to be 14.5 µM.

For `CCc1c(Cc2ccccc2)n(COCCSc2ccccc2)c(=O)[nH]c1=O`, the EC50 is 3.24 µM and the IC50 turned out to be 26.9 µM.

As to `CC(=O)N1C(Nc2cnc3ccccc3c2)CCN1c1ccccc1` (stereo not given), the EC50 is over 200 µM and the IC50 was determined as 17.8 µM.

As to `CC1=C(O)C(=O)C2C(=O)C1C(C)C2c1ccc(C)cc1` (stereo not given), the EC50 was over 251 µM and the IC50 is over 251 µM.

For `N#C/C(=C\c1ccc(-c2ccccc2)cc1)c1ccc([N+](=O)[O-])cc1`, the EC50 was over 200 µM and the IC50 was over 200 µM.

For the compound `COc1ccc(C)[n+]([O-])n1`, the EC50 was over 200 µM and the IC50 was over 200 µM.

Consider `CC(=O)Nc1ccc(/C=C/C(=O)c2ccccc2)cc1`, for which the EC50 was over 38 µM and the IC50 is over 38 µM.

On to `NC(CC(=O)O)C(=O)O` (stereo not given), for which the EC50 is over 38.9 µM and the IC50 is over 38.9 µM.

`COC(=O)C(=O)C(C(=O)C(=O)Nc1ccc([N+](=O)[O-])cc1C#N)c1nc2ccc([N+](=O)[O-])cc2[nH]c1=O` (stereo not given): the EC50 was over 490 µM and the IC50 was 209 µM.

For `COc1ccc(CC2c3c(cc(OC)c(OC)c3OC)CCN2C)cc1OC` (stereo not given), the EC50 is over 589 µM and the IC50 amounted to 158 µM.

With `Cn1c(=O)cc(Nc2ccc(N)cc2)[nH]c1=O`, the EC50 was over 200 µM and the IC50 was over 200 µM.

Regarding `CCOC(=O)c1c(C)[nH]c(=S)c(C#N)c1-c1cccc2ccccc12`, the EC50 is over 200 µM and the IC50 is 28.8 µM.

Regarding `CCC12CC[C@H](C#N)N3CCc4c(n(c5ccccc45)C(=O)C1)C32` (stereo not given in full), the result was inactive.

Consider `O=C1c2ccccc2CC12CCC1(CC2)OCCO1`, for which the EC50 is over 200 µM and the IC50 is over 200 µM.

Turning to `Cc1cn2c(=O)c3ccccc3nc2s1`, the EC50 was over 4.79 µM and the IC50 is over 4.79 µM.

In the case of `C(=N\Nc1ccccc1)/c1nc2ccccc2nc1/C=N/Nc1ccccc1`, the EC50 is over 5.5 µM and the IC50 was over 5.5 µM.

With `CC(C)(Oc1ccc(/C=C/C(=O)c2ccccc2)cc1)C(=O)Nc1c(Cl)cccc1Cl`, the EC50 is over 8.32 µM and the IC50 is over 8.32 µM.

With `Fc1cccc(F)c1C1SCc2nc3cc4ccccc4cc3n21` (stereo not given), the EC50 is over 200 µM and the IC50 came to 24.5 µM.

Consider `COC(=O)[C@@H]1C[C@@H](OS(=O)(=O)c2ccc(C)cc2)CN1S(=O)(=O)c1ccc(C)cc1`, for which the EC50 is over 200 µM and the IC50 worked out at 33.9 µM.

Turning to `CCOC(=O)C1(C)CCCc2sc(N)c(C#N)c21` (stereo not given), the EC50 is over 200 µM and the IC50 is over 200 µM.

On to `Nc1nc2nsnc2nc1N`, for which the EC50 was over 240 µM and the IC50 was over 240 µM.

With `CSc1nc2nc(C(O)C(O)C(O)CO)cnc2c(=O)[nH]1` (stereo not given), the result was inactive.

For `CCOC(=O)c1c(-c2ccc(Cl)cc2)c(C#N)c(=S)n(C2OC(COC(C)=O)C(OC(C)=O)C(OC(C)=O)C2OC(C)=O)c1C` (stereo not given), the EC50 was over 200 µM and the IC50 came out at 36.3 µM.

For the compound `Cn1c(=O)nc2n(CCO)ccnc-2c1=O`, the EC50 was over 100 µM and the IC50 is over 100 µM.

`Clc1ccc(C(OCn2ccnc2)c2nc3ccccc3[nH]2)c(Cl)c1` (stereo not given): the EC50 was over 200 µM and the IC50 came to 107 µM.

Take `[Li+]`: the result was inactive.

`CCN(CC)C1=Nc2ccccc2-n2c(C)cnc2C1`: the EC50 is over 200 µM and the IC50 was over 200 µM.

For `CSC(=NCCN=C(NS(=O)(=O)c1ccc(Cl)cc1)SC)NS(=O)(=O)c1ccc(Cl)cc1`, the EC50 was over 200 µM and the IC50 is over 200 µM.

As for `CC(=O)C(C)(CCC(=O)O)CCC(=O)O`, the EC50 is over 955 µM and the IC50 was over 955 µM.

On to `Cn1c(COC(=O)Nc2ccccc2)c(COC(=O)Nc2ccccc2)c2ccc3cc(Cl)c(Cl)cc3c21`, for which the EC50 was over 200 µM and the IC50 came out at 0.468 µM.

Take `CCOc1ccc(N=Cc2cccc3cccnc23)cc1`: the result was inactive.

Take `COc1ccc(NS(=O)(=O)c2ccc(NC(NC(=O)CC(C)C)(C(F)(F)F)C(F)(F)F)cc2)nn1`: the EC50 is over 200 µM and the IC50 came out at 191 µM.

Turning to `CC(NNC(=O)c1ccncc1)c1ccccc1` (stereo not given), the EC50 is over 200 µM and the IC50 was found to be 75.9 µM.

With `CCOC(=O)/C(=C\c1cccc(F)c1)P(=O)(OCC)OCC`, the EC50 was over 57.5 µM and the IC50 amounted to 10.2 µM.

As for `CCc1cccc(C(C)(C)C)c1NC(=S)/N=C/C(C(=O)c1ccccc1)=C(\O)c1ccccc1`, the EC50 is over 200 µM and the IC50 stood at 51.3 µM.

For the compound `Clc1ccccc1CN1COc2c(ccc3ccccc23)C1`, the EC50 is over 200 µM and the IC50 came out at 28.8 µM.

In the case of `O=[N+]([O-])c1cc(S(=O)(=O)c2ccc(S)c([N+](=O)[O-])c2)ccc1S`, the result was inactive.

Take `CC(=O)NNc1nc(C)c(C(=O)/C=C/c2ccc(Cl)c(Cl)c2)s1`: the EC50 is over 51.3 µM and the IC50 is over 51.3 µM.

Regarding `C[C@@H](CN1CC(=O)NC(=O)C1)N1CC(=O)NC(=O)C1`, the EC50 is over 933 µM and the IC50 stood at 91.2 µM.

On to `CCOC(=O)C(C)(CCC(C)(C(=O)OCC)C(=O)OCC)C(=O)OCC`, for which the EC50 was over 200 µM and the IC50 came out at 75.9 µM.

Take `COc1cc(C(F)(F)F)nc(SC)n1`: the EC50 is over 200 µM and the IC50 was over 200 µM.

`O=C(/C=C/c1ccccc1)/C=C/c1ccccc1O`: the EC50 is over 145 µM and the IC50 worked out at 61.7 µM.

`Cc1c2c(Cl)c3c(c(Cl)c2c(C)c2c(Cl)c4c(c(Cl)c12)C(c1ccccc1)(c1ccccc1)C4(c1ccccc1)c1ccccc1)C(c1ccccc1)(c1ccccc1)C3(c1ccccc1)c1ccccc1`: the EC50 is over 100 µM and the IC50 was over 100 µM.

One may read the EC50 as the concentration giving half of the maximal effect. As usually defined, the IC50 is the midpoint of a concentration-inhibition curve. A low value points to greater potency.
